Results from patent publication US8221736B2, “Semiochemical” (Rothamsted Research Limited, priority 1999, dated 2012).
Marks after values point to notes of the source that are not given here.

Assays:
Format in all cases: in vivo
[1] = test system: cereal aphids (predominantly Metropolophium dirhodum) on winter wheat, Triticum aestivum; experiment: Field study of cereal aphids on sprayed winter wheat plots; settings: sprayed 50 g a.i./ha on 5 May and 11 Jun. 1999
Text: The data have been transformed back from the logs to ease presentation. […] The predominant aphid species was Metropolophium dirhodum, the rose-grain aphid. S. avenae and Rhopalosiphum padi were also present, but numbers were very low. […] Plots (6 m×6 m) of winter wheat, Triticum aestivum (cv Consort), were arranged in a 5×5 quasi-complete Latin square design. The five cis-jasmone treated plots were sprayed on 5 May and 11 Jun. 1999, using a hand-held hydraulic device, at a rate of 50 g active ingredient/ha in 200 l/ha of aqueous […] BV (0.1%). Control plots were untreated. […] At each count, five tillers were inspected at 12 separate sites on two diagonal transects totalling 60 tillers per plot. Transformed data (y=log(y+1)) were subjected to ANOVA and the sums of squares of the treatments were partitioned to test for significant differences.

[2] = test system: D251 sequence in Vicia faba plants; experiment: Differential display and northern blot of gene-specific sequence D251; settings: northern blot, versus air
Procedure: Total RNA was isolated from stem or leaf tissue of plants exposed to air, methyl jasmonate or cis-jasmone. 10 μg RNA per sample was loaded and separated on a formaldehyde gel (Panel A). The samples were then transferred to a nylon membrane and probed with the D251 sequence (Panel B). Lane 1=air treatment (control); lane 2=cis-jasmone treatment; lane 3=methyl jasmonate treatment. In the case of RNA isolated from leaf tissue, only cis-jasmone treatment results in upregulation. In order to determine if cis-jasmone was capable of inducing alterations in plant gene expression, the sensitive technique of differential display was carried out on RNA extracted from plants which had been exposed to air, methyl jasmonate or cis-jasmone. […] To confirm this observation, bands of interest were recovered by excision from the dried gel and re-amplified with the appropriate pair of oligonucleotide primers. The resulting PCR products were cloned and sequenced to confirm the homogeneous nature of the amplified product. These sequences were then used to probe RNA isolated from control or treated V. faba plants. […] It is important to note that the nature of the differential display technique generates short gene-specific probes, containing mainly 3′ untranslated regions of transcribed sequences, and therefore the functional part of the differentially expressed gene is unknown. Thus, using differential display and confirmatory northern blotting, we have shown that methyl jasmonate and cis-jasmone have apparently distinct effects on plant gene expression. […] Thus, the two compounds have distinct effect on plant gene expression and the response to these signalling compounds may be tissue-specific.

[3] = test system: lettuce aphid Nasonovia ribis-nigri; experiment: 4-way olfactometer behavioural assay with alate lettuce aphids; settings: 1 μg in hexane on filter paper, 10 min, P<0.05
Procedure: Behavioural assays were done in a Perspex™ olfactometer similar to that described in J. Entomol. Scand. 1, 63-73 (1970) (Pettersson), with a weak airstream directed towards the centre from each of 4 side arms. The test compound (1 μg) in hexane (10 μl) was placed on filter paper (Whatman No. 1) at the end of one of the side arms, with hexane alone used as a control in the other arms. One alate virginopara of N. ribis-nigri was placed in the centre of the arena and its movements observed over 10 min. The apparatus, maintained at 24° C., was lit from above by fluorescent tubing and was rotated 90° every 2.5 min to avoid any directional bias. The experiment was replicated 6 times and results analysed by Student's t-test.

[4] = test system: aphid parasitoid Aphidius ervi; experiment: Wind tunnel single choice test of A. ervi with synthetic compounds on filter paper; settings: 10 μg on filter paper, hexane control 26.7
Text: Since semiochemicals acting as repellents or inhibitors of host attractancy for herbivorous insects are often involved in predation or parasitism, the activity of cis-jasmone was also investigated at higher trophic levels. […] These experiments indicate a behavioural role for cis-jasmone in influencing interactions between plants, herbivorous insects and their predators and parasitoids. Naive female A. ervi were flown in a wind tunnel, as described in J. Chem. Ecol. 16, 381-396 (1996) (Poppy et al.). The parasitoids were released 25 cm downwind (single choice tests) or 40 cm downwind (dual choice test) of the target, which was either a plant or a synthetic compound (10 μg in 10 μl hexane) placed on a 2×1 cm strip of filter paper (Whatman No. 1) surrounded by a ring of green crêpe paper. The proportions of parasitoids responding with an oriented flight to the synthetic chemicals were calculated each day on 3 separate days. These values were then subjected to a logit transformation to normalize the data before being analysed by ANOVA followed by Tukey post-hoc tests. The number of parasitoids orienting upwind to the single plant target were recorded and subjected to a χ^2 contingency test (Pearson method on Genstat—see Genstat 5 Committee. Genstat 5 Reference Manual, Release 3 (Clarendon Press, Oxford, 1993)) to determine whether an orienting response was linked to the type of plant treatment. The numbers orienting to each plant in the dual choice test were analysed by a χ^2 to determine whether one plant was more attractive than the other.

[5] = test system: hop aphid, Phorodon humuli; experiment: Preliminary field trials, yellow water traps, hop aphid summer morphs; settings: slow release 2.05 μg/day/trap; P<0.04

CC/C=C\CC1=C(C)CCC1=O [cis-jasmone]
numbers of parasitized aphids, treated versus untreated plots [1]: no significant difference | numbers of cereal aphids per 60 tillers, treated versus untreated plots ([1]; five sampling dates, significant on last two dates): consistently lower | expression of D251 sequence in leaf tissue ([2]; RNA from leaf tissue of plants exposed to vapour): upregulated | expression of D251 sequence in stem tissue ([2]; RNA from stem tissue of plants exposed to vapour): upregulated to a similar level | mean number of entries into the treated arm ([3]; 6 replicates, control arms 4.3±0.58): 2.0±0.58 | mean time spent in the treated arm ([3]; control arms 2.1±0.36 minutes): 0.5 ± 0.16 min | % showing oriented flight [4]: 53.1^a % | reduction of catches in water traps with visual (yellow) attractancy [5]: 40%
